Laboratory results reported in patent US8148400B2, “Thiazolyl compounds useful as kinase inhibitors” (Bristol-Myers Squibb Company, priority 2006, dated 2012).
Where a name gives a salt, the structure may show the parent alone.

Molecular target: IGF1-receptor (Homo sapiens, UniProt P08069)
Test: IGF1-Receptor Tyrosine Kinase Assay
Format: biochemical
Conditions: ATP 25 μM; FL-peptide 1.5 μM; IGF1-Receptor 14 nM; 60 min room temperature; read-out: IGF-1R IC50
Protocol: D. IGF1-Receptor Tyrosine Kinase Assay
The assays were performed in U-bottom 384-well plates. The final assay volume was 30 μl prepared from 15 μl additions of enzyme and substrates (fluoresceinated IGF1R substrate peptide and ATP) and test compounds in assay buffer (100 mM HEPES pH 7.4, 10 mM MnCl2, 0.015% Brij35 and 4 mM DTT). The reaction was initiated by the combination of IGF1-receptor with substrates and test compounds. The reaction was incubated at room temperature for 60 min. and terminated by adding 30 μl of 35 mM EDTA to each sample. The reaction mixture was analyzed on the Caliper LabChip 3000 by electrophoretic separation of the fluorescent substrate and phosphorylated product. Inhibition data were calculated by comparison to no enzyme control reactions for 100% inhibition and vehicle-only reactions for 0% inhibition. The final concentration of reagents in the assays is ATP, 25 μM; FL-peptide, 1.5 μM; IGF1-Receptor, 14 nM; and DMSO, 1.6%. Dose response curves were generated to determine the concentration required to inhibit 50% of kinase activity (IC50). Compounds were dissolved at 10 mM in dimethylsulfoxide (DMSO) and evaluated at eleven concentrations, each in duplicate. IC50 values were derived by non-linear regression analysis.

Chain of IGF1-receptor (P08069 31-1367): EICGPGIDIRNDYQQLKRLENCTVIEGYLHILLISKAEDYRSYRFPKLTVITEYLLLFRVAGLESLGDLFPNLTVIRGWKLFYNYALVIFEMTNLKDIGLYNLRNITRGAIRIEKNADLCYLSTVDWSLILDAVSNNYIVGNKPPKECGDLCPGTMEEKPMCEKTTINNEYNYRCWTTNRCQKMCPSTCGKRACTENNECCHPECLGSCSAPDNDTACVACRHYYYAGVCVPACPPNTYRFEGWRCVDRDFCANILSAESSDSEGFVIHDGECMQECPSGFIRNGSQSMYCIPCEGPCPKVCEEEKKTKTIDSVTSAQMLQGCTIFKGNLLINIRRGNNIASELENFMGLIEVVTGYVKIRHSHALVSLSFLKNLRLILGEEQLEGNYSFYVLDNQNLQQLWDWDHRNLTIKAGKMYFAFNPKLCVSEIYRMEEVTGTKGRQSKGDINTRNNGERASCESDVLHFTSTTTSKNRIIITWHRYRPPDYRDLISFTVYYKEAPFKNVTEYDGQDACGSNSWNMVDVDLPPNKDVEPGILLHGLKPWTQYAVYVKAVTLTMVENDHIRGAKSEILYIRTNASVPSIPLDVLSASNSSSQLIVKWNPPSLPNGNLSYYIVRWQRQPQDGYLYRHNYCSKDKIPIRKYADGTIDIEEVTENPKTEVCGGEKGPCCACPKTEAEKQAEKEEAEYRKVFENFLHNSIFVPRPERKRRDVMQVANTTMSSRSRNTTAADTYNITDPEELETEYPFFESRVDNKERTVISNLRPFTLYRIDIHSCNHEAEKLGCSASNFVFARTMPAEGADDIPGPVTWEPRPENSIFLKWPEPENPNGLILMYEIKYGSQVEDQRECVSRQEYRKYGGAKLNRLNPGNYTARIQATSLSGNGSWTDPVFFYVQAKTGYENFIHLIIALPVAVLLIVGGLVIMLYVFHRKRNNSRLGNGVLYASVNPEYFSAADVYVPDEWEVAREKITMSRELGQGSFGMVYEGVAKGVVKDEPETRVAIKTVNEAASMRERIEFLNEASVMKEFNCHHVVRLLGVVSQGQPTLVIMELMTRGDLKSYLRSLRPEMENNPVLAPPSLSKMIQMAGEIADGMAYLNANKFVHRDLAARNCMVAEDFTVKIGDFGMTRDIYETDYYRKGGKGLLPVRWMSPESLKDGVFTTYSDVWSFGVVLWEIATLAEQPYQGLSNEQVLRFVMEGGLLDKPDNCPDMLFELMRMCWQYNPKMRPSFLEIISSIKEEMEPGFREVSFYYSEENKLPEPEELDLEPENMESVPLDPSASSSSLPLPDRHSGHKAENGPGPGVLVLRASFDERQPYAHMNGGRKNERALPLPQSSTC

## Cc1ccnc(Nc2ncc(Sc3ccnc(C(=O)NCC(c4ccccc4)c4cccc(CO)c4)c3F)s2)c1 (stereo not drawn) [Example 67, 3-Fluoro-N-(2-(3-(hydroxymethyl)phenyl)-2-phenylethyl)-4-(2-(4-methylpyridin-2-ylamino)thiazol-5-ylthio)picolinamide hydrochloride]
  IC50: 0.288 µM

## O=C(NCCc1c[nH]c2ccc(O)cc12)c1nccc(Sc2cnc(Nc3ccccn3)s2)c1F [Example 33, 3-Fluoro-N-(2-(5-hydroxy-1H-indol-3-yl)ethyl)-4-(2-(pyridin-2-ylamino)thiazol-5-ylthio)picolinamide]
  IC50: 0.693 µM

## Cc1ccnc(Nc2ncc(Sc3ccnc(C(=O)NCC(c4ccccc4)c4ccccc4CO)c3F)s2)c1 (stereo not drawn) [Example 65, 3-Fluoro-N-(2-(2-(hydroxymethyl)phenyl)-2-phenylethyl)-4-(2-(4-methylpyridin-2-ylamino)thiazol-5-ylthio)picolinamide]
  IC50: 0.001 µM

## CCCC(O)(CNC(=O)c1nccc(Sc2cnc(Nc3ccc(CNC(=O)CN(C)C)cn3)s2)c1F)c1ccccc1 (stereo not drawn) [Example 77, 4-(2-(5-((2-(Dimethylamino)acetamido)methyl)pyridin-2-ylamino)thiazol-5-ylthio)-3-fluoro-N-(2-hydroxy-2-phenylpentyl)picolinamide]
  IC50: 0.004 µM

## Cc1ccnc(Nc2ncc(Sc3ccnc(C(=O)NCC(CNC(C)(C)C)(c4ccccc4)c4ccccc4)c3F)s2)c1 [Example 55, N-(3-(tert-butylamino)-2,2-diphenylpropyl)-3-fluoro-4-(2-(4-methylpyridin-2-ylamino)thiazol-5-ylthio)picolinamide]
  IC50: 0.199 µM

## Cc1ccnc(Nc2ncc(Sc3ccnc(C(=O)NCC(c4ccccc4)c4ccccc4Br)c3F)s2)c1 (stereo not drawn) [Example 58, N-(2-(2-bromophenyl)-2-phenylethyl)-3-fluoro-4-(2-(4-methylpyridin-2-ylamino)thiazol-5-ylthio)picolinamide]
  IC50: 1.52 µM

## Cc1ccnc(Nc2ncc(Sc3ccnc(C(=O)NCC(c4ccccc4)c4ccccc4C)c3F)s2)c1 (stereo not drawn) [Example 56, 3-fluoro-4-(2-(4-methylpyridin-2-ylamino)thiazol-5-ylthio)-N-(2-phenyl-2-o-tolylethyl)picolinamide]
  IC50: 0.891 µM

## Cc1ccnc(Nc2ncc(Sc3ccnc(C(=O)NCC(CN4CCCCC4)(c4ccccc4)c4ccccc4)c3F)s2)c1 [Example 49, N-(2,2-diphenyl-3-(piperidin-1-yl)propyl)-3-fluoro-4-(2-(4-methylpyridin-2-ylamino)thiazol-5-ylthio)picolinamide]
  IC50: 0.886 µM

## CCCC(O)(CNC(=O)c1nccc(Sc2cnc(Nc3ccc(CNC)cn3)s2)c1F)c1ccccc1 (stereo not drawn) [Example 82, 3-Fluoro-N-(2-hydroxy-2-phenylpentyl)-4-(2-(5-((methylamino)methyl)pyridin-2-ylamino)thiazol-5-ylthio)picolinamide]
  IC50: 0.003 µM

## Cc1ccnc(Nc2ncc(Sc3ccnc(C(=O)NCC(CN(C)CCO)(c4ccccc4)c4ccccc4)c3F)s2)c1 [Example 52, 3-Fluoro-N-(3-((2-hydroxyethyl)(methyl)amino)-2,2-diphenylpropyl)-4-(2-(4-methylpyridin-2-ylamino)thiazol-5-ylthio)picolinamide]
  IC50: 0.003 µM

## CC(C)(C)CNCC(CNC(=O)c1nccc(Sc2cnc(Nc3ccccn3)s2)c1F)(c1ccccc1)c1ccccc1 [Example 36, 3-Fluoro-N-(3-(neopentylamino)-2,2-diphenylpropyl)-4-(2-(pyridin-2-ylamino)thiazol-5-ylthio)picolinamide]
  IC50: 2.95 µM

## (S)-3-Fluoro-N-(2-(2-(hydroxymethyl)phenyl)-2-phenylethyl)-4-(2-(pyridin-2-ylamino)thiazol-5-ylthio)picolinamide and (R)-3-fluoro-N-(2-(2-(hydroxymethyl)phenyl)-2-phenylethyl)-4-(2-(pyridin-2-ylamino)thiazol-5-ylthio)picolinamide [Example 64]
  IC50: 0.316 µM

## CCC[C@@](O)(CNC(=O)c1nccc(Sc2cnc(Nc3nccc4sccc34)s2)c1F)c1ccccc1 [Example 83, (S)-3-fluoro-N-(2-hydroxy-2-phenylpentyl)-4-(2-(thieno[3,2-c]pyridin-4-ylamino)thiazol-5-ylthio)picolinamide]
  IC50: 0.394 µM

## CCNCC(CNC(=O)c1nccc(Sc2cnc(Nc3cc(C)ccn3)s2)c1F)(c1ccccc1)c1ccccc1 [Example 69, N-(3-(ethylamino)-2,2-diphenylpropyl)-3-fluoro-4-(2-(4-methylpyridin-2-ylamino)thiazol-5-ylthio)picolinamide]
  IC50: 0.005 µM

## O=C(NCC(c1ccccc1)c1ccccc1CO)c1nccc(Sc2cnc(Nc3ccccn3)s2)c1F (stereo not drawn) [Example 63, 3-Fluoro-N-(2-(2-(hydroxymethyl)phenyl)-2-phenylethyl)-4-(2-(pyridin-2-ylamino)thiazol-5-ylthio)picolinamide]
  IC50: 0.25 µM
